Reference: patent US9599603B2, “Methods and compositions for modulating adhesion and migration of cadherin expressing cells” (Case Western Reserve University, priority 2008, dated 2017)

Key:
Assay type in all cases: cell-based
[1] = system: Laminin; assay: LN-229 glioblastoma cell adhesion to Laminin substrate (specificity control); settings: 1 mM ADH-1, compared to control
Protocol: (§1) Sterile 35 mm tissue culture dishes were coated with nitrocellulose in methanol and allowed to dry. Distinct spots, containing 50 ng of either purified Laminin (Sigma) or N-cadherin-Fc (R&D Systems), were made by spotting 10 μl of protein solution on the nitrocellulose-coated tissue culture dishes. Each dish contained two distinct spots of both Laminin and N-cadherin-Fc. After a 20-min incubation at room temperature, the protein solutions were aspirated. Remaining binding sites on the nitrocellulose were blocked with 2% BSA in PBS, and the dishes were rinsed with DMEM (Invitrogen).
(§2) LN-229 (American Type Culture Collection, Manassus, Va.) cells plated the previous day in 100 mm tissue culture dishes and grown to 80% confluence were released with 2 mM EDTA in CMF. 4×10^5 cells were added to each tissue culture dish in the presence of N-cadherin peptidomimetic small molecules, reconstituted in either DMSO or 0.3% cyclodextrin, and diluted in DMEM supplemented with 10% fetal bovine serum (HyClone). […]
(§3) Adherent cells were detected by phase contrast light microscopy using a 20× objective on a Nikon TE-200 inverted microscope. […] The number of adherent cells per image was determined using threshold parameters in MetaMorph that highlighted individual cells that spread on the substrate spots. […] Data from control and experimental conditions were evaluated using the same thresholding parameters. […]

[2] = target: T1, N-cadherin (Homo sapiens, UniProt P19022); assay: RGC neurite outgrowth on N-cadherin substrate (antagonist screen); settings: ADH-1 vs vehicle control (FIG. 16A)
T1 construct: Fc (C); purchased R&D Systems
Protocol: Sterile 35 mm tissue culture dishes for retinal explants were coated with nitrocellulose in methanol and allowed to dry, before spreading 0.04-0.045 μg/plate of human N-cadherin-Fc (R&D Systems, Minneapolis, Minn.) across the center of each dish. Remaining binding sites on the nitrocellulose were blocked with 2% bovine serum albumin (BSA; Sigma, St. Louis, Mo.) in calcium/magnesium free phosphate buffer (CMF), and the dishes were rinsed with RPMI-1640 medium (HyClone, Logan, Utah). Cultures of retinal explants from embryonic day 8 chick were made as previously described in. Retinal explants were grown in RPMI-1640, 10% fetal bovine serum (HyClone), 2% chick serum (Invitrogen, Carlsbad, Calif.), 100 U/ml penicillin, 0.1 mg/ml streptomycin and 0.025 μg/ml amphotericin (Sigma). […] Neurite outgrowth was evaluated approximately 20 hours after plating. […] If outgrowth was affected, subsequent experiments determined the minimum concentration to affect outgrowth. […]
Neurite outgrowth was examined on a Nikon TE-200 inverted microscope (Tokyo, Japan), using a 10× objective. […] Subsequently measurements of neurite length and density were quantitated using the images. Length of the five longest neurites per explant was measured using MetaMorph version 6.3r4 (Molecular Devices, Downington Pa.). […] Control and experimental conditions were analyzed using the same thresholding parameters. […]

[3] = target: T1, N-cadherin; assay: LN-229 glioblastoma cell adhesion to N-cadherin substrate; settings: dose of 1 mM, 2 h adhesion
Protocol: as §1, §2, §3

T1 sequence (P19022 with tags, fused parts or gaps limits assumed): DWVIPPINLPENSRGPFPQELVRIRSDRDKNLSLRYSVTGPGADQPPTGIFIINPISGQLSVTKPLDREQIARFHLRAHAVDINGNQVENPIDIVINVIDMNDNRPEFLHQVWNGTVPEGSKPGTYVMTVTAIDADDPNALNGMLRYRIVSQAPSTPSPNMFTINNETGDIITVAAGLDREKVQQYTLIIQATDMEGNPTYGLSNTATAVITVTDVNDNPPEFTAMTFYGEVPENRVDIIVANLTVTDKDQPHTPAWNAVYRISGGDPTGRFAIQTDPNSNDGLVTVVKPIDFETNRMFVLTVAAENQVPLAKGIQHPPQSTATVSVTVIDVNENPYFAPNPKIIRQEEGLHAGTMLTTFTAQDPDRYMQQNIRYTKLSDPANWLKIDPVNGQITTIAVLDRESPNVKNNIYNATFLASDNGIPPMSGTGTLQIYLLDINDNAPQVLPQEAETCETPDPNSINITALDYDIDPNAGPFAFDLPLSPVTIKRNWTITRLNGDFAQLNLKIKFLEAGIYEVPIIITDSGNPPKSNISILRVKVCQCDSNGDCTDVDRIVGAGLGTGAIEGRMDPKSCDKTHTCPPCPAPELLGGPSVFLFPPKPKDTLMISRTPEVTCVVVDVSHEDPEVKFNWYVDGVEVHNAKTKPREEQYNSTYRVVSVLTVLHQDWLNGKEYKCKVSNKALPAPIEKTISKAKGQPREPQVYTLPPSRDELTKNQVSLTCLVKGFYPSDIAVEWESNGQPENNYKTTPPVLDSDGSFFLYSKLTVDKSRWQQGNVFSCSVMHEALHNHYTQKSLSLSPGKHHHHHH

CC(=O)N[C@H]1CSSC[C@@H](C(N)=O)NC(=O)[C@H](C(C)C)NC(=O)[C@H](C)NC(=O)[C@H](Cc2c[nH]cn2)NC1=O [ADH-1, N-Ac-CHAVC-NH2]
LN-229 adhesion to Laminin [1]: unaffected | effect on RGC neurite outgrowth on a substrate of N-cadherin [2]: eliminate RGC neurite outgrowth | adhesion of LN-229 cells to an N-cadherin substrate [3]: 46 % of control
